Source: ChEMBL document CHEMBL1649285, “In vivo efficacy of 1- and 2-gram human simulated prolonged infusions of doripenem against Pseudomonas aeruginosa” (Antimicrob Agents Chemother, 2009)
In brackets after ≈: the same amount, converted by molar mass.

What was measured:
Assay type in all cases: functional
Pseudomonas aeruginosa [1] = test: Antimicrobial activity against Pseudomonas aeruginosa isolate 1080 by broth microdilution method
Pseudomonas aeruginosa [2] = test: Antimicrobial activity against Pseudomonas aeruginosa isolate 1093 by broth microdilution method
Pseudomonas aeruginosa [3] = test: Antimicrobial activity against Pseudomonas aeruginosa isolate 896 by broth microdilution method
Pseudomonas aeruginosa [4] = test: Antimicrobial activity against Pseudomonas aeruginosa isolate 1036 by broth microdilution method
Pseudomonas aeruginosa [5] = test: Antimicrobial activity against Pseudomonas aeruginosa isolate 821 by broth microdilution method
Pseudomonas aeruginosa [6] = test: Antimicrobial activity against Pseudomonas aeruginosa isolate 971 by broth microdilution method
Pseudomonas aeruginosa [7] = test: Antimicrobial activity against Pseudomonas aeruginosa isolate 856 by broth microdilution method
Pseudomonas aeruginosa [8] = test: Antimicrobial activity against Pseudomonas aeruginosa isolate 878 by broth microdilution method
Pseudomonas aeruginosa [9] = test: Antimicrobial activity against Pseudomonas aeruginosa isolate 22 by broth microdilution method
Pseudomonas aeruginosa [10] = test: Antimicrobial activity against Pseudomonas aeruginosa isolate 944 by broth microdilution method
Pseudomonas aeruginosa [11] = test: Antimicrobial activity against Pseudomonas aeruginosa isolate 988 by broth microdilution method
Pseudomonas aeruginosa [12] = test: Antimicrobial activity against Pseudomonas aeruginosa isolate 927 by broth microdilution method
Pseudomonas aeruginosa [13] = test: Antimicrobial activity against Pseudomonas aeruginosa isolate 968 by broth microdilution method
Pseudomonas aeruginosa [14] = test: Antimicrobial activity against Pseudomonas aeruginosa isolate 913 by broth microdilution method
Pseudomonas aeruginosa [15] = test: Antimicrobial activity against Pseudomonas aeruginosa isolate 1006 by broth microdilution method
Pseudomonas aeruginosa [16] = test: Antimicrobial activity against Pseudomonas aeruginosa isolate 1060 by broth microdilution method
Pseudomonas aeruginosa [17] = test: Antimicrobial activity against Pseudomonas aeruginosa isolate 1050 by broth microdilution method
Pseudomonas aeruginosa [18] = test: Antimicrobial activity against Pseudomonas aeruginosa isolate 1095 by broth microdilution method

| SMILES | MIC (Pseudomonas aeruginosa [1]) [µg/mL] | MIC (Pseudomonas aeruginosa [2]) [µg/mL] | MIC (Pseudomonas aeruginosa [3]) [µg/mL] | MIC (Pseudomonas aeruginosa [4]) [µg/mL] | MIC (Pseudomonas aeruginosa [5]) [µg/mL] | MIC (Pseudomonas aeruginosa [6]) [µg/mL] | MIC (Pseudomonas aeruginosa [7]) [µg/mL] | MIC (Pseudomonas aeruginosa [8]) [µg/mL] | MIC (Pseudomonas aeruginosa [9]) [µg/mL] | MIC (Pseudomonas aeruginosa [10]) [µg/mL] | MIC (Pseudomonas aeruginosa [11]) [µg/mL] | MIC (Pseudomonas aeruginosa [12]) [µg/mL] | MIC (Pseudomonas aeruginosa [13]) [µg/mL] | MIC (Pseudomonas aeruginosa [14]) [µg/mL] | MIC (Pseudomonas aeruginosa [15]) [µg/mL] | MIC (Pseudomonas aeruginosa [16]) [µg/mL] | MIC (Pseudomonas aeruginosa [17]) [µg/mL] | MIC (Pseudomonas aeruginosa [18]) [µg/mL] |
| --- | --- | --- | --- | --- | --- | --- | --- | --- | --- | --- | --- | --- | --- | --- | --- | --- | --- | --- |
| CO/N=C(\C(=O)N[C@@H]1C(=O)N2C(C(=O)[O-])=C(C[N+]3(C)CCCC3)CS[C@H]12)c1csc(N)n1 [CEFEPIME] | 64 (≈ 133 µM) | 64 (≈ 133 µM) | 12 (≈ 25 µM) | 12 (≈ 25 µM) | > 256 | 32 (≈ 66.6 µM) | > 256 | 24 (≈ 49.9 µM) | 16 (≈ 33.3 µM) | 16 (≈ 33.3 µM) | 12 (≈ 25 µM) | 24 (≈ 49.9 µM) | 32 (≈ 66.6 µM) | 12 (≈ 25 µM) | 4 (≈ 8.32 µM) | 2 (≈ 4.16 µM) | 4 (≈ 8.32 µM) | – |
| CC(C)(O/N=C(\C(=O)N[C@@H]1C(=O)N2C(C(=O)[O-])=C(C[n+]3ccccc3)CS[C@H]12)c1csc(N)n1)C(=O)O [CEFTAZIDIME] | 16 (≈ 29.3 µM) | 4 (≈ 7.32 µM) | 12 (≈ 22 µM) | 2 (≈ 3.66 µM) | 64 (≈ 117 µM) | 48 (≈ 87.8 µM) | > 256 | 12 (≈ 22 µM) | 16 (≈ 29.3 µM) | 4 (≈ 7.32 µM) | 6 (≈ 11 µM) | 8 (≈ 14.6 µM) | 24 (≈ 43.9 µM) | 24 (≈ 43.9 µM) | 4 (≈ 7.32 µM) | 2 (≈ 3.66 µM) | 3 (≈ 5.49 µM) | 16 (≈ 29.3 µM) |
| O=C(O)c1cn(C2CC2)c2cc(N3CCNCC3)c(F)cc2c1=O [CIPROFLOXACIN] | > 32 | > 32 | – | 3 (≈ 9.05 µM) | > 32 | > 32 | > 32 | > 32 | – | 4 (≈ 12.1 µM) | 4 (≈ 12.1 µM) | > 32 | > 32 | – | – | – | > 32 | – |
